For orientation: IC50 means the midpoint of a concentration-inhibition curve.

Molecules are shown by their SMILES.

Assay type in all cases: biochemical
One test concerns the target T1, p99 AmpC β-lactamase (Enterobacter cloacae, UniProt P05364).
T1 construct: made in house; host or cells: E. coli BL21(DE3)
In words: β-Lactamase inhibition enzyme assay, p99 AmpC. On the procedure: (§1) For SHV-5, Kpc-2, p99AmpC and OXA-1 β-lactamases, E. coli BL21(DE3) bacterial cells carrying expression plasmids (expressed as native untagged proteins) for the individual β-lactamases were grown in 1 L of Superbroth (Teknova Inc. Hollister, Calif.) supplemented with 100 μg/ml kanamycin selection and 1×5052 (0.5% glycerol, 0.05% glucose and 0.2% α-lactose) at 35° C. for 18-20 hours. Cells were harvested by centrifugation (4,000×g, 4° C., 20 min), resuspended in 50 ml of 10 mM HEPES pH 7.5 ( 1/20 of the initial volume). The cells were lysed by sonication (5 pulses of 45 seconds) at 45 W on ice. The lysates were clarified by centrifugation at 10,000×g for 40 minutes at 4° C. Samples were diluted 5-fold in 50 mM sodium acetate pH 5.0, stored overnight at 4° C., after which they were centrifuged at 10,000×g for 30 minutes to clarify, and filtered through 0.45 μm filters. The samples were loaded onto a 5 ml Capto S sepharose cation exchange column (GE Healthcare) pre-equilibrated with 50 mM sodium acetate pH 5.0. The column was washed with 5 column volumes of 50 mM sodium acetate pH 5.0 to wash out unbound protein and a linear gradient of NaCl (0 to 500 mM) was used to elute the protein (over 16 CV) from the column. Fractions were assayed for β-lactamase activity using Centa (Calbiochem, Gibbstown, N.J.) or Nitrocefin (EMD Millipore chemicals, Darmstadt, Germany) as a reporter β-lactamase substrate for activity in the isolated fractions. Active fractions were pooled, concentrated and further purified by gel filtration chromatography on a Superdex 75 prep grade gel filtration column (GE Healthcare, Piscataway, N.J.) pre-equilibrated in 50 mM Hepes pH 7.5, 150 mM NaCl. Active fractions were pooled concentrated, quantitated by BCA protein determination (Thermo Scientific, Rockford, Ill.), dialyzed into PBS and frozen at −80° C. in 20% glycerol until use.
(§2) An equal volume of diluted enzyme stock was added, and the plates were incubated at 37° C. for 15 min. Nitrocefin was used as substrate for p99 AmpC, VIM-2 and OXA-1 and dispensed into each well at a final concentration of 100 μM. Absorbance at 486 nm was immediately monitored for 10 min using a Biotek Powerwave XS2 microplate spectrophotometer using the GEN5 softweare package (Biotek Instruments, Winooski Vt.). In an analogous fashion, imipenem was used as substrate for Kpc-2 and Cefotaxime was used for SHV-5, while changes in absorbance upon hydrolysis of the β-lactam ring were monitored at 300 nm and 260 nm respectively in UV-transparent 96-well microtiter assay plates. Maximum rates of hydrolysis were compared to those in control wells (without inhibitors), and percentages of enzyme inhibition were calculated for each concentration of inhibitor. The concentration of inhibitor needed to reduce the initial rate of hydrolysis of substrate by 50% (IC50) was calculated as the residual activity of β-lactamase at 486 nm using GraFit version 7 kinetics software package (Erithacus Software, Surrey, UK).

Test [1] deals with T2, VIM-2 metallo β-lactamase (Pseudomonas aeruginosa, UniProt Q9K2N0).
T2 construct: made in house; host or cells: E. coli BL21(DE3)
Kind of test: β-Lactamase inhibition enzyme assay, VIM-2. The following applies: Nitrocefin 100 μM as substrate, 486 nm; 15 min at 37° C. with enzyme, PBS pH 7.4; read-out: Class B VIM-2 IC50. On the procedure:
as §1
For Vim-2 metallo β-lactamase, the procedure was identical with the following exceptions, first the protein was not pH adjusted to pH 5 with 50 mM sodium acetate, second, the chromatography step was changed to a 5 ml Q sepharose anion exchange column pre-equilibrated with 50 mM Hepes pH 7.5, and elution of the protein was achieved by a linear gradient of NaCl (0-600 mM). Finally, the VIM-2 purification required a second run (3rd step) on the Q sepharose anion exchange column to achieve acceptable purity (>90%).
as §2

In a further test the target is T3, SHV-5 β-lactamase (Klebsiella pneumoniae, UniProt P0A3M1).
T3 construct: made in house; host or cells: E. coli BL21(DE3)
Kind of test: β-Lactamase inhibition enzyme assay, SHV-5. On the procedure: as §1, §2

A further test deals with T4, KPC-2 β-lactamase (Klebsiella pneumoniae, UniProt Q9F663).
T4 construct: made in house; host or cells: E. coli BL21(DE3)
Kind of test: β-Lactamase inhibition enzyme assay, KPC-2. The conditions noted are these: imipenem as substrate, 300 nm; 15 min at 37° C. with enzyme, PBS pH 7.4; read-out: Class A KPC-2 IC50. On the procedure:
as §1, §2

Another test deals with T5, OXA-1 β-lactamase (Escherichia coli, UniProt P13661).
T5 construct: made in house; host or cells: E. coli BL21(DE3)
In words: β-Lactamase inhibition enzyme assay, OXA-1. The conditions noted are these: Nitrocefin 100 μM as substrate, 486 nm; 15 min at 37° C. with enzyme, PBS pH 7.4; read-out: Class D OXA-1 IC50. On the procedure:
as §1, §2

T3 sequence (P0A3M1 22-286): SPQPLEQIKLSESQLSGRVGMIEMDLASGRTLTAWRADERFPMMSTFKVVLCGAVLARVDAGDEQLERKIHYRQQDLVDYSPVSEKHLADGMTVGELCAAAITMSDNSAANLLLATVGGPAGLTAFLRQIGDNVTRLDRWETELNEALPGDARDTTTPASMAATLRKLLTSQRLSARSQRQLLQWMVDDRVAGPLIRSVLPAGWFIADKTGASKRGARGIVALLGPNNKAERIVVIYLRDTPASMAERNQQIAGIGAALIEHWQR
T4 sequence (Q9F663 25-293, looked up): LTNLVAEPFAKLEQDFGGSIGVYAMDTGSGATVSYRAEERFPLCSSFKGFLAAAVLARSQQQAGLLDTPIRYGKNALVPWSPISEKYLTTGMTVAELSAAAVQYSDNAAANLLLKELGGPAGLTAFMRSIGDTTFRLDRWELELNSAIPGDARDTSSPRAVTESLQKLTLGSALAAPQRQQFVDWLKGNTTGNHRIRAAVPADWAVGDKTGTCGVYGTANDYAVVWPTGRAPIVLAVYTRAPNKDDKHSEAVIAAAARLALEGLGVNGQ
T5 sequence (P13661 26-276): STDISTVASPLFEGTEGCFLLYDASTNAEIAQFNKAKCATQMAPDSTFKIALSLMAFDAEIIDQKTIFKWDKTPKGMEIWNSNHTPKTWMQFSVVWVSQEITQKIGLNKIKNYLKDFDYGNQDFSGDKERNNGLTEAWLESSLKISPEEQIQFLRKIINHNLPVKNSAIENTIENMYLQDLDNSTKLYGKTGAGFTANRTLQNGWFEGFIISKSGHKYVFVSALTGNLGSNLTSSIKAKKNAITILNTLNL
T1 sequence (P05364 21-381): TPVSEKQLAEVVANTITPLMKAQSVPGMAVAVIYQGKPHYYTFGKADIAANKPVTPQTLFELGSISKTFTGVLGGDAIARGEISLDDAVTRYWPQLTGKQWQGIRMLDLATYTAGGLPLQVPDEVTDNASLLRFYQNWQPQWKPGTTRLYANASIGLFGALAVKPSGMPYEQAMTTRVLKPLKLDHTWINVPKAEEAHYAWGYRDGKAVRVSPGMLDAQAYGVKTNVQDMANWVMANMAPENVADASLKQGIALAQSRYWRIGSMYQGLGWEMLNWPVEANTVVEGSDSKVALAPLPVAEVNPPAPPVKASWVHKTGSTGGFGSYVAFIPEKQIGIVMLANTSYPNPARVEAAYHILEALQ

For the compound `CN1Cc2ccc(CC(=O)N[C@H]3Cc4cccc(C(=O)O)c4OB3O)cc2C1` [Example 48, (R)-2-Hydroxy-3-[2-(2-methyl-2,3-dihydro-1H-isoindol-5-yl)-acetylamino]-3,4-dihydro-2H-benzo[e][1,2]oxaborinine-8-carboxylic acid], the 50% inhibitory concentration (IC50) (against p99 AmpC β-lactamase; in test [1]; on SHV-5 β-lactamase; at KPC-2 β-lactamase; on OXA-1 β-lactamase) was less than 0.1 µM throughout.

In the case of `NCCOc1ccc(CC(=O)N[C@H]2Cc3cccc(C(=O)O)c3OB2O)cc1OCCN` [Example 58, (R)-3-(2-(3,4-bis(2-aminoethoxy)phenyl)acetamido)-2-hydroxy-3,4-dihydro-2H-benzo[e][1,2]oxaborinine-8-carboxylic acid], the half-maximal inhibitory concentration (IC50) on p99 AmpC β-lactamase is less than 0.1 µM; in test [1], 0.1 to 1 µM; on SHV-5 β-lactamase, less than 0.1 µM; at KPC-2 β-lactamase it was less than 0.1 µM; at OXA-1 β-lactamase it was less than 0.1 µM.

As to `N=C(N)NCc1cc(CNC(=N)N)cc(C(=O)N[C@H]2Cc3cccc(C(=O)O)c3OB2O)c1` [Example 45, (R)-3-(3,5-bis(guanidinomethyl)benzamido)-2-hydroxy-3,4-dihydro-2H-benzo[e][1,2]oxaborinine-8-carboxylic acid], the IC50 was less than 0.1 µM on p99 AmpC β-lactamase; less than 0.1 µM in test [1]; 0.1 to 1 µM at SHV-5 β-lactamase; less than 0.1 µM at KPC-2 β-lactamase; less than 0.1 µM on OXA-1 β-lactamase.

Take `O=C(N[C@H]1Cc2cccc(C(=O)O)c2OB1O)c1ccc(-c2ncc[nH]2)cc1` [Example 47, (R)-2-Hydroxy-3-[4-(1H-imidazol-2-yl)-benzoylamino]-3,4-dihydro-2H-benzo[e][1,2]oxaborinine-8-carboxylic acid]: the IC50 is less than 0.1 µM at p99 AmpC β-lactamase; 0.1 to 1 µM in test [1]; less than 0.1 µM on SHV-5 β-lactamase; less than 0.1 µM at KPC-2 β-lactamase; less than 0.1 µM at OXA-1 β-lactamase.

`N=C(N)N1Cc2ccc(C(=O)N[C@H]3Cc4cccc(C(=O)O)c4OB3O)cc2C1` [Example 16, (R)-3-(2-carbamimidoylisoindoline-5-carboxamido)-2-hydroxy-3,4-dihydro-2H-benzo[e][1,2]oxaborinine-8-carboxylic acid]: the concentration for half-maximal inhibition (IC50) (against p99 AmpC β-lactamase; in test [1]; against SHV-5 β-lactamase; at KPC-2 β-lactamase; at OXA-1 β-lactamase) was less than 0.1 µM each time.

`O=C(O)c1cccc2c1OB(O)[C@@H](NC(=O)c1cccc3cc[nH]c13)C2` [Example 31, (R)-2-hydroxy-3-(1H-indole-7-carboxamido)-3,4-dihydro-2H-benzo[e][1,2]oxaborinine-8-carboxylic acid]: the IC50 on p99 AmpC β-lactamase was less than 0.1 µM; in test [1], 1 to 10 µM; on SHV-5 β-lactamase, 0.1 to 1 µM; at KPC-2 β-lactamase it was less than 0.1 µM; at OXA-1 β-lactamase, less than 0.1 µM.

`CN(C)Cc1ccc(C(=O)N[C@H]2Cc3cccc(C(=O)O)c3OB2O)cc1N` [Example 18, (R)-3-(3-amino-4-((dimethylamino)methyl)benzamido)-2-hydroxy-3,4-dihydro-2H-benzo[e][1,2]oxaborinine-8-carboxylic acid]: the IC50 at p99 AmpC β-lactamase is less than 0.1 µM; in test [1] it was 0.1 to 1 µM; against SHV-5 β-lactamase it was less than 0.1 µM; at KPC-2 β-lactamase, less than 0.1 µM; at OXA-1 β-lactamase, less than 0.1 µM.

With `O=C1Cc2cc(C(=O)N[C@H]3Cc4cccc(C(=O)O)c4OB3O)ccc2N1` [Example 33, (R)-2-Hydroxy-3-[(2-oxo-2,3-dihydro-1H-indole-5-carbonyl)-amino]-3,4-dihydro-2H-benzo[e][1,2]oxaborinine-8-carboxylic acid], the IC50 on p99 AmpC β-lactamase was less than 0.1 µM; in test [1] it was 0.1 to 1 µM; at SHV-5 β-lactamase it was less than 0.1 µM; at KPC-2 β-lactamase it was less than 0.1 µM; at OXA-1 β-lactamase, less than 0.1 µM.

Consider `O=C(N[C@H]1Cc2cccc(C(=O)O)c2OB1O)c1ccc(-c2ccncc2)cc1` [Example 27, (R)-2-hydroxy-3-(4-(pyridin-4-yl)benzamido)-3,4-dihydro-2H-benzo[e][1,2]oxaborinine-8-carboxylic acid], for which the IC50 is less than 0.1 µM at p99 AmpC β-lactamase; 1 to 10 µM in test [1]; less than 0.1 µM on SHV-5 β-lactamase; less than 0.1 µM at KPC-2 β-lactamase; less than 0.1 µM at OXA-1 β-lactamase.

Take `O=C(O)c1cccc2c1OB(O)[C@@H](NC(=O)C1(c3ccccc3)CC1)C2` [Example 1, (R)-2-hydroxy-3-(1-phenylcyclopropanecarboxamido)-3,4-dihydro-2H-benzo[e][1,2]oxaborinine-8-carboxylic acid]: the IC50 on p99 AmpC β-lactamase was less than 0.1 µM; in test [1] it was 0.1 to 1 µM; on SHV-5 β-lactamase, less than 0.1 µM; at KPC-2 β-lactamase, less than 0.1 µM; on OXA-1 β-lactamase, less than 0.1 µM.

Turning to `O=C(O)c1ccccc1C(=O)N[C@H]1Cc2cccc(C(=O)O)c2OB1O` [Example 53, (R)-3-(2-carboxybenzamido)-2-hydroxy-3,4-dihydro-2H-benzo[e][1,2]oxaborinine-8-carboxylic acid], the IC50 is less than 0.1 µM on p99 AmpC β-lactamase; 1 to 10 µM in test [1]; 0.1 to 1 µM against SHV-5 β-lactamase; 0.1 to 1 µM at KPC-2 β-lactamase; less than 0.1 µM on OXA-1 β-lactamase.

Take `NCCn1ccc2ccc(C(=O)N[C@H]3Cc4cccc(C(=O)O)c4OB3O)cc21` [Example 41, (R)-3-{[1-(2-Amino-ethyl)-1H-indole-6-carbonyl]-amino}-2-hydroxy-3,4-dihydro-2H-benzo[e][1,2]oxaborinine-8-carboxylic acid]: the IC50 (against p99 AmpC β-lactamase; in test [1]; on SHV-5 β-lactamase; on KPC-2 β-lactamase; on OXA-1 β-lactamase) was less than 0.1 µM throughout.

In the case of `NCCNc1ccc(CC(=O)N[C@H]2Cc3cccc(C(=O)O)c3OB2O)c[n+]1[O-]` [Example 61, (R)-2-(2-aminoethylamino)-5-(2-(8-carboxy-2-hydroxy-3,4-dihydro-2H-benzo[e][1,2]oxaborinin-3-ylamino)-2-oxoethyl)pyridine 1-oxide], the IC50 at p99 AmpC β-lactamase is less than 0.1 µM; in test [1] it was 0.1 to 1 µM; at SHV-5 β-lactamase, less than 0.1 µM; at KPC-2 β-lactamase, less than 0.1 µM; at OXA-1 β-lactamase, less than 0.1 µM.

As for `O=C(Cc1ccc2c(c1)CNCC2)N[C@H]1Cc2cccc(C(=O)O)c2OB1O` [Example 51, (R)-2-Hydroxy-3-(2-1,2,3,4-tetrahydro-isoquinolin-7-yl-acetylamino)-3,4-dihydro-2H-benzo[e][1,2]oxaborinine-8-carboxylic acid], the IC50 (on p99 AmpC β-lactamase; in test [1]; against SHV-5 β-lactamase; at KPC-2 β-lactamase; at OXA-1 β-lactamase) was less than 0.1 µM each time.

As to `O=C(O)c1cccc2c1OB(O)[C@@H](NC(=O)c1c[nH]c3ncccc13)C2` [Example 8, (R)-2-hydroxy-3-(1H-pyrrolo[2,3-b]pyridine-3-carboxamido)-3,4-dihydro-2H-benzo[e][1,2]oxaborinine-8-carboxylic acid], the IC50 at p99 AmpC β-lactamase was less than 0.1 µM; in test [1], 1 to 10 µM; on SHV-5 β-lactamase, less than 0.1 µM; at KPC-2 β-lactamase, 0.1 to 1 µM.

For the origin of these results see patent US9376454B2, “Beta-lactamase inhibitors” (priority 2013, dated 2016).
